# Assay results taken from US20250270648A1, “MOLECULAR SIGNATURE FOR ASSESSING THE RESPONSIVENESS OF CANCER TO MITOCHONDRIA-TARGETED ANTIOXIDANTS” (UNIVERSITÉ CATHOLIQUE DE LOUVAIN, priority 2021, published 2025).
# Columns and labels:
# [1] = system: MCF7 cells; experiment: Migration towards 0.5% serum, chemotaxis chamber; assay type: cell-based, human; conditions: low dose DXR, 0.1 μg/mL, 16 h pretreatment, 6 h recovery
# Method: (§1) Previous to migration and invasion assays, cells were pretreated with the indicated amounts of drugs for 16 h, and left to recover for 6 h in full culture medium. Migration assays were performed in a NeuroProbe® standard 48-well chemotaxis chamber according to manufacturer's instructions. Briefly, the bottom chamber was filled with DMEM containing 0.5% serum as a chemo-attractant. Fifty thousand cells were seeded in the upper chamber in the same medium but without serum ±MitoQ where indicated, and allowed to migrate overnight through an 8-μm pore-size polycarbonate membrane. A similar stimulation protocol was used for invasion assays, with the difference of using Matrigel-coated transwells (Corning®). With MCF7 cells, membranes were previously incubated for 30 min with a solution of Vitronectin 10 μg/ml (Sigma-Aldrich®, #SRP3186). Migrated/invaded cells were fixed and stained with 100 μl of a 0.23% crystal violet solution (Sigma-Aldrich®, #C0775) for 10 min before counting on a SpectraMax™ i3 spectrophotometer equipped with a MiniMax imaging cytometer, using the SoftMax Pro software. Data were normalized to vehicle-treated cells (control).
# [2] = system: MCF7 cells; experiment: Mitochondrial superoxide, mitoSOX FACS; assay type: cell-based, human; conditions: DXR 0.1 μg/mL, 24 h
# Method: (§2) Mitochondrial superoxide was measured in cells loaded with 3 μM of MitoSOX (Invitrogen®, catalogue #M36008) for 10 min at 37° C. Cells were gently detached with Accutase® (Thermo Fisher Scientific®, catalogue #A1110501), resuspended in PBS containing 10 mM of D-Glucose and 2% FBS, and immediately analyzed by flow cytometry using a FACSCantoII flow cytometer (BD Biosciences®).
# [3] = system: murine 4T1 breast cancer cell line; experiment: Mitochondrial superoxide, mitoSOX FACS; assay type: cell-based, mouse
# Method: as §2
# [4] = system: human MCF7 breast cancer cells; experiment: Seahorse XF96 OCR and proton leak; assay type: cell-based; conditions: 24 h
# Method: (§3) Cellular oxygen consumption rates (OCRs) were assessed on a Seahorse XF96® bioenergetic analyzer using the Mito Stress® Kit following manufacturer's instructions (Agilent Technologies®). Briefly, 40,000 cells were plated and left to adhere for 24 h before treatment with the indicated doses DXR. Basal mitochondrial oxygen consumption (mtOCR) was identified as the portion of OCR sensitive to 0.5 μM of Complex I inhibitor rotenone together with 0.5 μM of Complex III inhibitor antimycin A. Proton leak corresponded to the portion of mtOCR resistant to 1 μM of ATP synthase inhibitor oligomycin. Maximal OCR was determined after mitochondrial potential disruption using 1 μM of ionophore carbonyl cyanide-4-(trifluoromethoxy)phenylhydrazone (FCCP). At the end of the experiment, cells were lysed in 30 μl of NaOH 0.5 M, and proteins were quantified with the Bradford method in order to normalize data by total protein content. Lactate and glucose concentrations were measured on deproteinized cell supernatants using an ISCUSflex CMA600™ analyzer (Aurora Borealis®), as previously described (Sonveaux et al.; PLoS. One 2012; 7, e33418).
# [5] = system: murine 4T1 breast cancer cells; experiment: Seahorse XF96 OCR and proton leak; assay type: cell-based, mouse; conditions: 24 h
# Method: as §3
# [6] = system: 4T1 cells; experiment: Invasion, Matrigel-coated transwells; assay type: cell-based, mouse; conditions: low dose DXR, 0.1 μg/mL, 16 h pretreatment, 6 h recovery
# Method: as §1
# [7] = system: MCF7 cells; experiment: Glucose uptake and lactate release, enzymatic; assay type: cell-based, human; conditions: 24 h
# Method: as §3
# [8] = system: 4T1 cells; experiment: Glucose uptake and lactate release, enzymatic; assay type: cell-based, mouse; conditions: DXR 0.1 μg/mL, 24 h
# Method: as §3
# [9] = system: 4T1 cells; experiment: Migration towards 0.5% serum, chemotaxis chamber; assay type: cell-based, mouse; conditions: 16 h pretreatment, 6 h recovery
# Method: as §1
# [10] = system: human MDA-MB-231 breast cancer cell line; experiment: Mitochondrial superoxide, mitoSOX FACS; assay type: cell-based; conditions: increasing doses of cisplatin, 48 h
# Method: as §2
# [11] = system: 4T1 breast tumors; experiment: 4T1-bearing mice, doxorubicin ±MitoTEMPO; assay type: in vivo, mouse; conditions: doxorubicin 4 mg/kg i.v. weekly ×3 + MitoTEMPO 0.7 mg/kg i.p. daily; lungs day +21
# Method: On day −8, nine-week-old female Balb/cJRj mice (Janvier®) were injected with 200,000 viable 4T1 cells into the fourth mammary fat pad. When tumors reached an average diameter of 4 mm (day 0) and became palpable in all mice, an intravenous injection of doxorubicin (4 mg/kg) was administered once per week during 3 weeks (30) ±daily intraperitoneal injections of MitoTEMPO (0.7 mg/kg) or the same volume of vehicle (DMSO) until the end of the experiment. Tumor volume was determined three times a week using an electronic caliper and normalized to tumor volume at day 0. At the end-point (day +21), mice were sacrificed and their lungs were fixed in formalin. Tissues were stained with hematoxylin & eosin (H&E). Pictures of whole lung slides were acquired with a slide scanner (SCN400, Leica®) and analyzed with the Digital Image Hub software (DIH, Leica®). The area occupied by metastases was normalized to the lung area analyzed.
# [12] = system: MDA-MB-436 cells; experiment: RT-qPCR of biomarker signature after SKQ1; assay type: cell-based, human; conditions: 500 nM SKQ1, 48 h
# [13] = system: SkBr3 cells; experiment: RT-qPCR of biomarker signature after SKQ1; assay type: cell-based, human; conditions: 500 nM SKQ1, 48 h
# Method: (§4) Total mRNA from MDA-MB-231 or SkBr-3 human breast cancer cells treated ±500 nM SKQ1 for 48 h (Alexandr V. et al. Int. J. Cancer 2016; 139, 130-139) was extracted using the Tri reagent (Brunschwig Chemie®, cat #TR118). mRNAs were quantified by NanoDrop™1000 (Thermo Fisher Scientific®), and were reverse-transcribed in complementary DNAs using the high-capacity cDNA Reverse Transcription Kit (Thermo Fisher Scientific®, cat #4368814) according to manufacturer's protocol. Complementary DNAs (500 ng per sample) were amplified by RT-qPCR using the ROX SYBR Master Mix dTTP Blue (Eurogentec®) and primers listed in Table 5 and Table 6 on a CFX96 Real Time PCR system (BioRad®). Gene expression was normalized to […] gene expression.
# [14] = system: MDA-MB-231 cells; experiment: RT-qPCR of biomarker signature after SKQ1; assay type: cell-based, human; conditions: 500 nM SKQ1, 48 h
# Method: as §4
smiles,measurement,setting,value
COc1cccc2c1C(=O)c1c(O)c3c(c(O)c1C2=O)C[C@@](O)(C(=O)CO)C[C@@H]3O[C@H]1C[C@H](N)[C@H](O)[C@H](C)O1 [doxorubicin],cell migration,[1],stimulated
same,production of mitochondrial superoxide at the ETC,[2],increased production
same,production of mitochondrial superoxide at the ETC,"[3]; DXR 0.1 μg/mL, 24 h",increased production
same,mitochondrial oxygen consumption rate (mtOCR),"[4]; DXR low doses, 0.1 to 0.01 μg/mL",increased
same,leak of protons at the electron transport chain (ETC),[4]; increasing doses of DXR,dose dependent leak
same,mtOCR,[5]; Low-dose DXR,increased
same,leak of protons at the electron transport chain (ETC),[5]; increasing doses of DXR,dose dependent leak
same,cell invasion,[6],stimulated
same,glucose uptake,[7]; DXR 0.1 μg/mL,significantly increasing
same,glycolysis,[7]; DXR 0.1 to 0.01 μg/mL range,little effect
same,glycolysis,[8],little effect
same,lactate release,[8],significantly decreasing
same,cell migration,"[9]; low dose DXR, 0.1 μg/mL",stimulated
N.N.[Cl][Pt][Cl] [cisplatin],mitochondrial superoxide production at the ETC,"[3]; increasing doses of cisplatin, 48 h",induce
same,mitochondrial superoxide production at the ETC,[10],induce
same,cancer cell migration,[9]; cisplatin 77.76 μM,induced
CC1(C)CC(NC(=O)C[P+](c2ccccc2)(c2ccccc2)c2ccccc2)CC(C)(C)N1[O] [MitoTEMPO],cancer metastasis in breast cancer-bearing animals treated with DXR,[11],inhibit
"CC1=C(C)C(=O)C(CCCCCCCCCC[P+](c2ccccc2)(c2ccccc2)c2ccccc2)=CC1=O.[Br-] [SKQ1, [10-(4,5-dimethyl-3,6-dioxo-1,4-cyclohexadien-1-yl)decyl]triphenyl-phosphonium, monobromide]",amplitude of the change in ASNS expression,[12],+526%
same,amplitude of the change in G6PD expression,[12],+22%
same,amplitude of the change in SNAI1 expression,[12],−12%
same,amplitude of the change in SOX2 expression,[12],−67%
same,genes of the complete biomarker signature with the expected gene expression changes,[12],14 of the 15
same,PHGDH-1 expression increased by,[12]; P<0.005,2.51 fold
same,PSAT1 expression increased by,[12]; P<0.005,2.53 fold
same,TXNRD1 expression increased by,[12]; P<0.005,2.11 fold
same,gene expression of ASNS,[12]; P<0.005,increased
same,gene expression of NUPR1,[12]; P<0.005,increased
same,gene expression of PCK2,[12]; P<0.005,increased
same,gene expression of SLC6A9,[12]; P<0.005,increased
same,SERPINE1 expression increased by,[12]; P<0.01,1.46 fold
same,SLC7A11 expression increased by,[12]; P<0.01,3.60 fold
same,gene expression of SOX2,[12]; P<0.05,decreased
same,expected gene expression changes that were statistically significant,[12]; among 14 genes,10
same,gene expression of G6PD,"[12]; not significant, P=0.0974",increased
same,gene expression of NANOG,"[12]; not significant, P=0.5663",decreased
same,gene expression of SNAI1,"[12]; not significant, P=0.6013",decreased
same,gene expression of ZEB1,"[12]; not significant, P=0.6890",decreased
same,amplitude of the change in NUPR1 expression,[13],+25%
same,amplitude of the change in SLC7A11 expression,[13],+565%
same,amplitude of the change in SOX2 expression,[13],−95%
same,amplitude of the change in VIM expression,[13],−19%
same,genes of the complete biomarker signature with the expected gene expression changes,[13],13 of the 15
same,SLC7A11 expression increased by,[13]; P<0.005,6.65 fold
same,TXNRD1 expression increased by,[13]; P<0.005,3.20 fold
same,gene expression of PCK2,[13]; P<0.005,increased
same,gene expression of SOX2,[13]; P<0.005,decreased
same,PHGDH-1 expression increased by,[13]; P<0.01,2.26 fold
same,PSAT1 expression increased by,[13]; P<0.01,2.26 fold
same,gene expression of ASNS,[13]; P<0.01,increased
same,gene expression of ZEB1,[13]; P<0.05,decreased
same,SERPINE1 expression increased by,[13]; P=0.0732,1.45 fold
same,expected gene expression changes that were statistically significant,[13]; among 13 genes,8
same,gene expression of NANOG,"[13]; not significant, P=0.1539",decreased
same,gene expression of NUPR1,"[13]; not significant, P=0.2615",increased
same,gene expression of VIM,"[13]; not significant, P=0.3557",decreased
same,gene expression of G6PD,[13]; only 2 replicates,increased
same,amplitude of the change in NUPR1 expression,[14],+676%
same,amplitude of the change in SERPIN1 expression,[14],+63%
same,amplitude of the change in SNAI1 expression,[14],−21%
same,amplitude of the change in SOX2 expression,[14],−52%
same,genes of the complete biomarker signature with the expected gene expression changes,[14],12 of the 15
same,PHGDH-1 expression increased by,[14]; P<0.005,5.36 fold
same,PSAT1 expression increased by,[14]; P<0.005,3.43 fold
same,SLC7A11 expression increased by,[14]; P<0.005,2.35 fold
same,TXNRD1 expression increased by,[14]; P<0.005,1.69 fold
same,gene expression of ASNS,[14]; P<0.005,increased
same,gene expression of G6PD,[14]; P<0.005,increased
same,gene expression of NUPR1,[14]; P<0.005,increased
same,gene expression of PCK2,[14]; P<0.005,increased
same,gene expression of SLC6A9,[14]; P<0.005,increased
same,gene expression of SOX2,[14]; P<0.005,decreased
same,SERPINE1 expression increased by,[14]; P<0.01,1.63 fold
same,expected gene expression changes that were statistically significant,[14]; among 12 genes,11
same,gene expression of SNAI1,"[14]; not significant, P=0.4575",decreased
